Test results: PMC6588697, “Lugdunin amplifies innate immune responses in the skin in synergy with host- and microbiota-derived factors” (Nature Communications, 2019)
Several values for one entry are separate records, joined by “and”; a condition that tells them apart may be missing. Identical values can stand only once.

Key:
Format in all cases: cell-based, human
[1] = tested on: HTEpCs; assay: CXCL8 expression in HTEpCs (qRT-PCR); conditions: 5 h, two technical replicates
Method: Quantitative reverse transcription-polymerase chain reaction (qRT-PCR) was performed in 10 µL reaction volume with SYBR^TM Green PCR Master Mix (Thermo Fisher) according to the manufacturer’s instructions using a LightCycler 96 (Roche Life Science). The initial denaturation step was at 95 °C for 5 min, followed by 40 cycles with 10 s each for the denaturation step at 95 °C, the annealing at individual temperature, and the elongation at 72 °C. Primer sequences and respective annealing temperatures are listed in Supplementary Table 1. […]
31 g+h+i: HNEpCs (b), HTEpCs (c) or PBMCs (d) were treated with increasing
32 concentrations of lugdunin (grey bars) or 100 ng/mL Pam2Cys or Pam3Cys (white
33 bars) as positive controls for 5 hours and subsequently expression of CXCL8 was
34 analyzed and normalized to actin. Black bar: medium control. Shown is one
35 representative experiment of three independent experiments with two technical
36 replicates +/-s.e.m. Significant differences to control treatments were analyzed by
37 ordinary one-way ANOVA followed by Dunnett’s multiple comparisons test (*P<0.05; […]

[2] = tested on: HTEpCs; assay: Cytokine release into HTEpC supernatant (LEGENDplex / ELISA); conditions: 5 h, lugdunin 2 µM or Pam2Cys 100 ng/mL, two technical replicates, Fig 1f
[3] = tested on: PBMCs; assay: Cytokine release into PBMC supernatant (LEGENDplex / ELISA); conditions: 5 h, lugdunin 2 µM or Pam2Cys 100 ng/mL, two technical replicates, Fig 1f
Method: Fig. 1 Lugdunin sensitizes epithelial cells for innate immune defense. a Primary human keratinocytes (PHKs) were pretreated with S. epidermidis conditioned medium (CM), indicated lugdunin concentrations, or the combination of both for 20 h. Subsequently, cells were infected with S. aureus for 1.5 h followed by cell lysis and determination of colony-forming units (CFUs). Shown is one representative experiment of three independent experiments with six technical replicates ± s.e.m. n.s., not significant. b Dorsal skin of mice was pretreated with S. epidermidis CM, 1.5 µg lugdunin alone or in combination with S. epidermidis CM for 24 h. Subsequently, S. aureus CFUs were determined. Horizontal lines represent the mean of each group ± s.e.m. c PHKs were treated with 2 μM lugdunin or with S. epidermidis CM alone or in combination for 20 h and subsequently expression of indicated antimicrobial peptides (AMPs) (respective protein names in brackets) was analyzed and normalized to actin. Shown is one representative experiment of three independent experiments with two technical replicates ± s.e.m. d PHKs were treated with 2 µM lugdunin or 100 ng/mL Pam2Cys for 5 h and subsequently the concentration of indicated cytokines in the supernatant was analyzed by LEGENDplex^TM (BioLegend). […]

Lugdunin
CXCL8 fold induction ([1]; lugdunin 0.5 µM, sheet Supp Fig 1g): 1.537 and 1.231 | CXCL8 fold induction ([1]; lugdunin 1 µM): 4.112 and 4.228 | CXCL8 fold induction ([1]; lugdunin 2 µM): 16.564 and 16 | CXCL8 fold induction ([1]; lugdunin 3 µM): 18.001 and 14.929 | CXCL8 fold induction ([1]; lugdunin 5 µM): 23.264 and 22.316 | CXCL8 fold induction ([1]; lugdunin 10 µM): 16.056 and 17.328 | CXCL8 concentration in supernatant [2]: 214.845 and 210.300 | CXCL8 concentration in supernatant [3]: 231.761 and 233.451
